Key:
BV-2 [1] = assay: Cytotoxicity against mouse BV-2 cells assessed as cell viability at 40 uM measured after 24 hrs by MTT assay; format: toxicity, cell-based; conditions: bv-2, 24 h
[2] = Cytotoxicity against mouse BV-2 cells assessed as cell viability at 40 uM measured after 24 hrs by MTT assay relative to control; format: toxicity, cell-based; conditions: read-out: Activity
BV-2 [3] = assay: Antineuroinflammatory activity in LPS induced mouse BV-2 cells assessed as inhibition of NO production pretreated for 3 hrs followed by LPS addition and measured after 21 hrs by griess reagent based assay; format: functional, cell-based

Compound: COC(=O)c1cccc2nc3c([C@H](OC(=O)c4ccc(Br)cc4)[C@@H](C)C(=O)OC)cccc3nc12
- Activity (BV-2 [1]): Toxic

Compound: COC(=O)c1cccc2nc3c([C@@H](C)O)cccc3nc12
- viability at 24 h, 40 µM [2]: > 98%
- IC50 (BV-2 [3]): 8.5 µM

Compound: COC(=O)C[C@@H](O)c1cccc2nc3c(C(=O)OC)cccc3nc12
- viability at 24 h, 40 µM [2]: > 98%
- IC50 (BV-2 [3]): 8.4 µM

Compound: COC(=O)c1cc2c([nH]c3ccccc32)c(-c2ccc(CO)o2)n1
- Activity (BV-2 [1]): Toxic

Compound: O=C(O)c1cccc2nc3ccccc3nc12 [PHENAZINE-1-CARBOXYLIC ACID]
- viability at 24 h, 40 µM [2]: > 98%
- IC50 (BV-2 [3]): 8.4 µM

Compound: O=C1CCCN1Cc1ccco1
- viability at 24 h, 40 µM [2]: > 98%
- IC50 (BV-2 [3]): > 20 µM

Compound: CSc1nc(NC/C=C(/C)CO)c2ncn([C@@H]3O[C@H](COC(C)=O)[C@@H](O)[C@H]3O)c2n1
- viability at 24 h, 40 µM [2]: > 98%
- IC50 (BV-2 [3]): > 20 µM

Compound: CSC(=N)N
- IC50 (BV-2 [3]): 7.5 µM

Compound: CC(=O)NCCC(=O)Nc1cccs1
- viability at 24 h, 40 µM [2]: > 98%
- IC50 (BV-2 [3]): 17.4 µM

Compound: CC(C)C[C@@H]1NC(=O)[C@H](Cc2c[nH]c3ccccc23)NC1=O
- viability at 24 h, 40 µM [2]: > 98%
- IC50 (BV-2 [3]): > 20 µM

Compound: COC(=O)c1cccc2nc3c([C@H](O)[C@H](C)C(=O)OC)cccc3nc12
- viability at 24 h, 40 µM [2]: > 98%
- IC50 (BV-2 [3]): 8.2 µM

Source: ChEMBL document CHEMBL5584315, “Evaluation of Phenazine Derivatives from the Lichen-Associated Streptomyces flavidovirens as Potent Antineuroinflammatory Agents In Vitro and In Vivo” (J Nat Prod, 2024)
